The values below come from patent US5010058A, “3,5,6-substituted derivatives of 1,2-O-isopropylidene-α,D-glucofuranose and intermediates for preparing these derivatives” (501 Greenwich Pharmaceuticals Incorporated, priority 1989, dated 1991).

Structures are written as SMILES. Where two headings read alike, the source gives them in different places.

This assay has as its system normal spleen cells / splenic T-lymphocytes (Con-A stimulated). Nature of the assay: Con-A blastogenic response of normal spleen cells (3H-thymidine incorporation). It is filed as cell-based, mouse (C57Bl/6). The settings on record: for Blastogenic response of normal spleen cells to Con-A: triplicates ± SD; for inhibition at 1 µg/mL / inhibition at 10 µg/mL / inhibition at 25 µg/mL / inhibition at 100 µg/mL / inhibition at 300 µg/mL / inhibition at 750 µg/mL: Mus musculus, T-lymphocyte, 72 h, percent change from no compound, read-out: Blastogenic response of normal spleen cells to Con-A, % effect. The source says: A simple method is used to screen compounds for their ability to modulate T-lymphocyte activity which comprises assessing the capacity of the compounds to alter the activation of murine spleen cells in response to T-lymphocyte mitogen activators, such as concanavalin-A (Con-A). The method used to measure the effects of the compounds of the present invention on the blastogenic response of spleen cells to the T-lymphocyte mitogen, (i.e., Con-A), is as follows.
Spleen cells were removed from normal C57Bl/6 mice and homogenized to obtain a single cell suspension. Erythrocytes were lysed by hypotonic shock. Upon determination of the viability and concentration of the remaining lymphoid cells, they were adjusted to a concentration of 4×10^6 /ml. These spleen cells (2×10^5 cells per […]) were seeded into wells of microtiter plates with the compounds of the present invention having the following dose concentrations:
Con-A was also added to these cultures at a final concentration of […]. These cells were cultured for 3 days at 37° C. in a humidified atmosphere of 5% CO2 in air. For the last 18 hours of culture, […] H-thymidine was added to each well. The cells were then precipitated by a multichannel harvester. The amount of ^3 H-thymidine incorporated by the cultured cells were measured in a liquid scintillation counter (Disintegrations per min., DPM). All assays were conducted in triplicate.
The incubation medium used for the blastogenesis assays was RPMI-1640 medium containing 10% fetal bovine serum, […] streptomycin, 100 U/ml penicillin, […] Hepes buffer solution, 5×10^-5 M 2-mercaptoethanol and 2 mM glutamine.
^a Experimental compounds were first suspended in DMSO or ethanol,
^b The effect of experimental compounds on the blastogenic response o
(Dividing cells build labelled thymidine or BrdU into new DNA.)

Setting [1] is: Con-A 1 ug/ml, compound 1 ug/ml.
The mark [2] stands for this setting: Con-A 1 ug/ml, compound 10 ug/ml.
[3] abbreviates: Con-A 1 ug/ml, compound 25 ug/ml.
[4] abbreviates: Con-A 1 ug/ml, compound 100 ug/ml.
The mark [5] stands for this setting: Con-A 1 ug/ml, compound 300 ug/ml.
The mark [6] stands for this setting: Con-A 1 ug/ml, compound 750 ug/ml.
The mark [7] stands for this setting: Con-A 4 ug/ml, compound 1 ug/ml.
Setting [8] is: Con-A 4 ug/ml, compound 10 ug/ml.
Setting [9] is: Con-A 4 ug/ml, compound 25 ug/ml.
The mark [10] stands for this setting: Con-A 4 ug/ml, compound 100 ug/ml.
Setting [11] is: Con-A 4 ug/ml, compound 300 ug/ml.
Where [12] appears, read: Con-A 4 ug/ml, compound 750 ug/ml.

Take `CCCCCCCOC(C)C1OC2OC(C)(C)OC2C1OCCCN(C)C` [Ex. 6, 1,2-O-Isopropylidene-3-O-3'-(N'-N'-dimethylaminopropyl)-5-O-n-heptyl-6-deoxy-α,D-glucofuranose]: the “Blastogenic response of normal spleen cells to Con-A” value is reported as 86,406 ± 16,348 cpm under setting [1]; 12,670 ± 6,997 cpm under setting [2]; 5,399 ± 3,253 cpm under setting [3]; 6,597 ± 2,887 cpm under setting [4]; 3,693 ± 340 cpm under setting [5]; 3,709 ± 281 cpm under setting [6]. For the same molecule, the “Blastogenic response of normal spleen cells to Con-A” value is on record as 75,689 ± 8,498 cpm under setting [7]; 4,693 ± 1,930 cpm under setting [8]; 6,187 ± 6,859 cpm under setting [9]; 6,741 ± 4,224 cpm under setting [10]; 3,756 ± 923 cpm under setting [11]; 2,933 ± 1,383 cpm under setting [12]. The inhibition at 1 µg/mL reads like this: under setting [1], -20%; under setting [7], 22%. The inhibition at 10 µg/mL under setting [2] came out at 82% and the inhibition at 10 µg/mL under setting [8] is 95%. Also, the inhibition at 25 µg/mL by setting is: under setting [3], 93%; under setting [9], 94%. The inhibition at 100 µg/mL by setting is: under setting [4], 91%; under setting [10], 93%. For the same molecule, the inhibition at 300 µg/mL is 95% under setting [5] and 96% under setting [11]. The inhibition at 750 µg/mL was found to be 95% under setting [6] and 97% under setting [12].
